Laboratory results taken from patent US20230143604A1, “QW DOSING OF GIP RECEPTOR AGONIST PEPTIDE COMPOUNDS AND USES THEREOF” (TAKEDA PHARMACEUTICAL COMPANY LIMITED, priority 2020, published 2023).
Read-outs that look alike come from different tables or passages of the source. Starred links: 1 amine or outer side, 2 acyl side, 3 side chain; linkers in the order of their positions; H or OH if unused. Non-standard residues stand in square brackets, D forms with d. Residues, ends and D or L forms follow the SMILES beside them. Groups on a side chain read outwards from the residue. *: point of attachment. C18 diacid = O=C(O)CCCCCCCCCCCCCCCCC(=O)*; γGlu = O=C(O)[C@H](CCC(=O)[*:2])N[*:1]; NMeY = CN[C@@H](Cc1ccc(O)cc1)C(=O)O; AEEA = NCCOCCOCC(=O)O; Aib = CC(C)(N)C(=O)O

Legend:
[1] = Pharmacokinetics in dog after IV and SC dosing; settings: in vivo
Description: Pharmacokinetic (PK) were conducted in dog in order to determine the half-life after IV and SC dosing. The peptide was dissolved in 10% DMSO/0.09% Polysorbate/PBS pH 7.4 to a concentration of 3 nmol/mL and the animal were dose with a volume of 1 mL/kg SC or IV. Blood sample were collected at 0, 0.033, 0.083, 0.25, 0.5, 1, 2, 4, 6, 8, 12, 24, 48, 72, 96, 120, 168, 336 hours for IV dosing and 0.25, 0.5, 1, 2, 4, 6, 8, 12, 24, 48, 72, 96, 120, 168, 336 for SC dosing, EDTA-K2 was used as anticoagulant. The plasma concentration of the peptide was measured using LCMS. Allometric scaling of lipidated peptide pharmacokinetics including T1/2 and MRT is known in the art for rodent to dog and mini pig and to humans. […] See for example, Discovery and Development of Liraglutide and Semaglutide. Knudsen, L. B.; Lau, J. Frontiers in Endocrinology, 2019, vol 10, Article 155.

[2] = Dog plasma protein binding (PPB); type: in vitro ADME; settings: for fraction unbound: read-out: Dog PPB (FUplasma)
Source text: Dog PPB values presented below are obtained essentially as described for Human PPB samples, with the difference being that dog serum is used instead of human serum. Table 10 is provided with the values of (Fu,plasma) as fraction unbound expressed as a percentage compared to the percent bound. i.e. if the value is 0.0123, then the fraction unbound is […], which is 1.23% of the peptide is unbound and 98.77% is bound in plasma. Methods and analysis for performing the dog PPB protocol and results are the same as noted herein as for the Human PPB protocol and analysis.

[3] = Human plasma protein binding (PPB); type: in vitro ADME
Description: Stock solutions: (1000 μM) of the peptides are prepared in DMSO.
Human plasma (mixed gender; containing K2-EDTA as anti-coagulant; pre-adjusted to pH 7.4—NB alternative species may be used) is spiked individually with each test peptide (1000 nmol/L), sampled for analysis and then incubated (n=4) at 37° C. in a water bath for 30 minutes. Following the incubation period, the plasma is sampled for analysis, then transferred to ultracentrifugation tubes and centrifuged (n=3) at […] and 4° C. for 3 hours, after which the supernatant is sampled for analysis. An additional aliquot of the supernatant is taken at the end of the centrifugation period to determine the total protein concentration. An aliquot of the incubated plasma will be stored at 4° C. for 3 hours and then sampled for analysis. At the point of sampling, all samples are matrix-matched, treated with ice-cold acetonitrile/methanol (4:1 (vfv)) containing internal standard, centrifuged al 2000 g and 4° C. for 10 minutes and stored prior to LC-MS/MS analysis. An appropriate positive control compound control will be incubated and centrifuged in parallel; control plasma is also centrifuged to generate samples for matrix-matching. Fraction unbound in plasma (Fuplasma) values is determined by comparison of the analyte response in plasma to the analyte response in the supernatant, determined via peak area response ratios.
The samples are analyzed by LC-MS/MS using a 6500 (or equivalent) triple quadrupole mass spectrometer (AB Sciex) coupled to an appropriate Liquid Chromatography (LC) system. Protein binding and stability values are determined via peak area ratios using multiple reaction monitoring (MRM) parameters following compound optimisation. Multiple reaction monitoring (MRM) is a highly sensitive method of targeted mass spectrometry (MS) that can be used to selectively detect and quantify peptides based on the screening of specified precursor peptide-to-fragment ion transitions.

physchem = experiment: physchem
In short: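 Solubility at pH 7.4 determined by stepwise addition of 200 mM phosphate buffer in 100 μL increments to 3 mg peptide, mixing briefly each time, until no insoluble material remained, then measured by liquid chromatography.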

human GLP-1R = biological target: T1, human GLP-1R (Homo sapiens, UniProt P43220); experiment: Human GLP1R agonist activity, intracellular cAMP accumulation; type: cell-based; settings: HEK-293T cells overexpressing human GLP-1R, 1 hr, read-out: Human GLP1R cAMP EC50, HEK293T
T1 construct: HEK-293T cells overexpressing full-length human GLP-1R; FLAG (N); host or cells: HEK-293T
In short: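 cAMP accumulation is measured by HTRF after a 1 hr, room-temperature, dark exposure of thawed cells (4×10^5 cells/mL in Krebs Ringer buffer) to compound. Activity is scaled between DMSO alone as 0% and 1 nm GLP-1 as 100%.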

[4] = judged for once per week (QW) dosing
[5] = IV 3 nmol/kg, read-out: IV T½ (converted)
[6] = SC 3 nmol/kg, read-out: SC MRT 0-last
[7] = pH 7.4, fraction unbound, dog serum

T1 sequence (P43220 24-463): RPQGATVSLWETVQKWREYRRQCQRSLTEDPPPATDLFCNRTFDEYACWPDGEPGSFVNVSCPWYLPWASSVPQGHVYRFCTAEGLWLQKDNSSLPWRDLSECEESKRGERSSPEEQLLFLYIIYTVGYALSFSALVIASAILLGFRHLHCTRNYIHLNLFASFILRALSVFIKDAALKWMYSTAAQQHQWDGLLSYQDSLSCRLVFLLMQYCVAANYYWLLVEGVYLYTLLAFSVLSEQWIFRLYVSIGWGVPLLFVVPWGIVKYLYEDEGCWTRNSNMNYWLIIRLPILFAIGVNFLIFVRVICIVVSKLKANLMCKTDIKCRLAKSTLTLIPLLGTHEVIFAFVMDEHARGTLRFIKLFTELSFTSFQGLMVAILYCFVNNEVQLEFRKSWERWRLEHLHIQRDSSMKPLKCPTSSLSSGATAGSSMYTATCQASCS

For `CC[C@H](C)[C@H](NC(=O)[C@H](Cc1ccccc1)NC(=O)[C@@H](NC(=O)CNC(=O)[C@H](CCC(=O)O)NC(=O)C(C)(C)NC(=O)[C@H](Cc1ccc(O)cc1)NC)[C@@H](C)O)C(=O)N[C@@H](CO)C(=O)N[C@@H](CC(=O)O)C(=O)N[C@@H](Cc1ccc(O)cc1)C(=O)N[C@@H](CO)C(=O)N[C@H](C(=O)NC(C)(C)C(=O)N[C@@H](CC(C)C)C(=O)N[C@@H](CC(=O)O)C(=O)N[C@@H](CCCNC(=N)N)C(=O)NC(C)(C)C(=O)N[C@@H](C)C(=O)N[C@@H](CCC(N)=O)C(=O)NC(C)(C)C(=O)N[C@@H](CC(N)=O)C(=O)N[C@@H](Cc1ccccc1)C(=O)N[C@H](C(=O)N[C@@H](CC(N)=O)C(=O)N[C@@H](Cc1c[nH]c2ccccc12)C(=O)N[C@@H](CC(C)C)C(=O)N[C@@H](CC(C)C)C(=O)N[C@@H](C)C(=O)N[C@@H](CCC(N)=O)C(=O)N[C@@H](CCCCNC(=O)COCCOCCNC(=O)COCCOCCNC(=O)CC[C@H](NC(=O)CC[C@H](NC(=O)CCCCCCCCCCCCCCCCC(=O)O)C(=O)O)C(=O)O)C(=O)N1CCC[C@H]1C(=O)N[C@@H](CO)C(=O)N[C@@H](CO)C(=O)NCC(=O)N[C@@H](C)C(=O)N1CCC[C@H]1C(=O)N1CCC[C@H]1C(=O)N1CCC[C@H]1C(=O)N[C@@H](CO)C(N)=O)C(C)C)[C@@H](C)CC` [Compound 27, Me-Y-Aib-E-G-T-F-I-S-D-Y-S-I-Aib-L-D-R-Aib-A-Q-Aib-N-F-V-N-W-L-L-A-Q-Km-P-S-S-G-A-P-P-P-S-NH2] (H-[NMeY][Aib]EGTFISDYSI[Aib]LDR[Aib]AQ[Aib]NFVNWLLAQK([AEEA-AEEA-γGlu-γGlu-C18 diacid])PSSGAPPPS-NH2), the half-life ([1]; iv, 3 nmol/kg) was 77 h, the MRT last ([1]; sc, 3 nmol/kg) was 109 h and the “Dog PPB (FUplasma)” value ([2]; fraction unbound, dog serum) was under 0.002. The fraction unbound at 30 min, 1000 nmol/L ([3]; both sexes, plasma (K2-EDTA), pH 7.4, fraction unbound, human plasma, 1000 nmol/L peptide, ultracentrifugation, read-out: Human PPB (FUplasma)) was 0.0013, the “free unbound peptide in human plasma (in words)” value (“free unbound peptide” below) [3, 4] was “optimum free unbound peptide” and the solubility (physchem; pH 7.4) was at least 15 mg/mL. For the same compound, the solubility (physchem; pH 7.4, aqueous buffer) was at least 30 mg/mL.

Compound `CC[C@H](C)[C@H](NC(=O)[C@H](CO)NC(=O)[C@H](Cc1ccc(O)cc1)NC(=O)[C@H](CC(=O)O)NC(=O)[C@H](CO)NC(=O)[C@@H](NC(=O)[C@H](Cc1ccccc1)NC(=O)[C@@H](NC(=O)CNC(=O)[C@H](CCC(=O)O)NC(=O)C(C)(C)NC(=O)[C@H](Cc1ccc(O)cc1)NC)[C@@H](C)O)[C@@H](C)CC)C(=O)N[C@@H](C)C(=O)N[C@@H](CC(C)C)C(=O)N[C@@H](CC(=O)O)C(=O)N[C@@H](CCCNC(=N)N)C(=O)NC(C)(C)C(=O)N[C@@H](C)C(=O)N[C@@H](CCC(N)=O)C(=O)NC(C)(C)C(=O)N[C@@H](CCCCNC(=O)COCCOCCNC(=O)COCCOCCNC(=O)CC[C@H](NC(=O)CC[C@H](NC(=O)CCCCCCCCCCCCCCCCC(=O)O)C(=O)O)C(=O)O)C(=O)N[C@@H](Cc1ccccc1)C(=O)N[C@H](C(=O)N[C@@H](CC(N)=O)C(=O)N[C@@H](Cc1c[nH]c2ccccc12)C(=O)N[C@@H](CC(C)C)C(=O)N[C@@H](CC(C)C)C(=O)N[C@@H](C)C(=O)N[C@@H](CCC(N)=O)C(=O)N[C@@H](CCCCN)C(=O)NCC(=O)O)C(C)C` [Compound 41, Me-Y-Aib-E-G-T-F-I-S-D-Y-S-I-A-L-D-R-Aib-A-Q-Aib-Km-F-V-N-W-L-L-A-Q-K-G-OH] (H-[NMeY][Aib]EGTFISDYSIALDR[Aib]AQ[Aib]K([AEEA-AEEA-γGlu-γGlu-C18 diacid])FVNWLLAQKG-OH) has a half-life [1, 5] of 115 h, an MRT last [1, 6] of 119 h and a fraction unbound [2, 7] of 0.0007. The “Human PPB (FUplasma)” value ([3]; fraction unbound, human plasma, 1000 nmol/L peptide, ultracentrifugation) was under 0.002, the “free unbound peptide” value [3, 4] was “optimum free unbound peptide” and the solubility (physchem; pH 7.4) was at least 15 mg/mL.

With `CC[C@H](C)[C@H](NC(=O)[C@H](CO)NC(=O)[C@H](Cc1ccc(O)cc1)NC(=O)[C@H](CC(=O)O)NC(=O)[C@H](CO)NC(=O)[C@@H](NC(=O)[C@H](Cc1ccccc1)NC(=O)[C@@H](NC(=O)CNC(=O)[C@H](CCC(=O)O)NC(=O)C(C)(C)NC(=O)[C@H](Cc1ccc(O)cc1)NC)[C@@H](C)O)[C@@H](C)CC)C(=O)N[C@@H](C)C(=O)N[C@@H](CC(C)C)C(=O)N[C@@H](CC(=O)O)C(=O)N[C@@H](CCCNC(=N)N)C(=O)NC(C)(C)C(=O)N[C@@H](CCCCNC(=O)COCCOCCNC(=O)COCCOCCNC(=O)CC[C@H](NC(=O)CC[C@H](NC(=O)CCCCCCCCCCCCCCCCC(=O)O)C(=O)O)C(=O)O)C(=O)N[C@@H](CCC(N)=O)C(=O)NC(C)(C)C(=O)N[C@@H](CC(N)=O)C(=O)N[C@@H](Cc1ccccc1)C(=O)N[C@H](C(=O)N[C@@H](CC(N)=O)C(=O)N[C@@H](Cc1c[nH]c2ccccc12)C(=O)N[C@@H](CC(C)C)C(=O)N[C@@H](CC(C)C)C(=O)N[C@@H](C)C(=O)N[C@@H](CCC(N)=O)C(=O)N[C@@H](CO)C(=O)N1CCC[C@H]1C(=O)N[C@@H](CO)C(=O)N[C@@H](CO)C(=O)NCC(=O)N[C@@H](C)C(=O)N1CCC[C@H]1C(=O)N1CCC[C@H]1C(=O)N1CCC[C@H]1C(=O)N[C@@H](CO)C(N)=O)C(C)C` [Compound 293, Me-Y-Aib-E-G-T-F-I-S-D-Y-S-I-A-L-D-R-Aib-Km-Q-Aib-N-F-V-N-W-L-L-A-Q-S-P-S-S-G-A-P-P-P-S-NH2] (H-[NMeY][Aib]EGTFISDYSIALDR[Aib]K([AEEA-AEEA-γGlu-γGlu-C18 diacid])Q[Aib]NFVNWLLAQSPSSGAPPPS-NH2) the half-life ([1]; iv, 3 nmol/kg) was 68 h, the MRT last ([1]; sc, 3 nmol/kg) was 83 h and the fraction unbound at 30 min, 1000 nmol/L ([2]; dog, serum, pH 7.4) was under 0.002. For the same compound, the fraction unbound at 30 min, 1000 nmol/L ([3]; both sexes, human, plasma, pH 7.4) was under 0.002, the “free unbound peptide” value ([3]; human, plasma) was “optimum free unbound peptide” and the solubility (physchem; pH 7.4) was at least 15 mg/mL. It also gave a solubility (physchem; pH 7.4, aqueous buffer) of at least 30 mg/mL.

For `CC[C@H](C)[C@H](NC(=O)[C@H](Cc1ccccc1)NC(=O)[C@@H](NC(=O)CNC(=O)[C@H](CCC(=O)O)NC(=O)C(C)(C)NC(=O)[C@H](Cc1ccc(O)cc1)NC)[C@@H](C)O)C(=O)N[C@@H](CO)C(=O)N[C@@H](CC(=O)O)C(=O)N[C@@H](Cc1ccc(O)cc1)C(=O)N[C@@H](CO)C(=O)N[C@H](C(=O)NC(C)(C)C(=O)N[C@@H](CCCCNC(=O)CNC(=O)CNC(=O)CNC(=O)CNC(=O)CNC(=O)CCCCCCCCCCCCCCCCC(=O)O)C(=O)N[C@@H](CC(=O)O)C(=O)N[C@@H](CCCNC(=N)N)C(=O)NC(C)(C)C(=O)N[C@@H](C)C(=O)N[C@@H](CCC(N)=O)C(=O)NC(C)(C)C(=O)N[C@@H](CC(=O)O)C(=O)N[C@@H](Cc1ccccc1)C(=O)N[C@H](C(=O)N[C@@H](CC(N)=O)C(=O)N[C@@H](Cc1c[nH]c2ccccc12)C(=O)N[C@@H](CC(C)C)C(=O)N[C@@H](CC(C)C)C(=O)N[C@@H](C)C(=O)N[C@@H](CCC(N)=O)C(=O)N[C@@H](CCCNC(=N)N)C(=O)NCC(=O)O)C(C)C)[C@@H](C)CC` [Compound 294, Me-Y-Aib-E-G-T-F-I-S-D-Y-S-I-Aib-Km-D-R-Aib-A-Q-Aib-D-F-V-N-W-L-L-A-Q-R-G-OH], the half-life [1, 5] was 59 h, the MRT last [1, 6] was 97 h and the EC50 (human GLP-1R) was 38.9 nM. For the same compound, the fraction unbound [2, 7] was 0.0111, the fraction unbound ([3]; both sexes, pH 7.4, fraction unbound, human plasma, 1000 nmol/L peptide, ultracentrifugation, read-out: Human PPB (FUplasma)) was under 0.002 and the “free unbound peptide” value [3, 4] was “optimum free unbound peptide”. For the same compound, the solubility (physchem; pH 7.4) was at least 15 mg/mL and the solubility (physchem; pH 7.4, aqueous buffer) was at least 30 mg/mL.
